Laboratory results as given in publication PMC9928118, “Funneling modulatory peptide design with generative models: Discovery and characterization of disruptors of calcineurin protein-protein interactions” (PLOS Computational Biology, 2023).
Each block holds one sequence with its values, some of them ahead of it.

Tested on: GST-tagged Cn
Experiment: PEPperPRINT peptide microarray binding assay with GST-tagged Cn
Procedure, shortened: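 Qualitative binding: peptides printed on a PEPperPRINT microarray were incubated overnight at 4 °C with 1 mg/ml GST-tagged Cn, then detected with Alexa-Fluor 647 anti-GST antibody. Log fluorescence was baseline-corrected, averaged over duplicate spots, Z-normalized and averaged across five repeats.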

[1] = GST-tagged Cn, max over the chip spots listed under Location on chip
[2] = GST-tagged Cn, mean over the chip spots listed under Location on chip
[3] = GST-tagged Cn, max over the chip locations
[4] = GST-tagged Cn, mean over the chip locations
[5] = GST-tagged Cn, max over the spots on the chip (two locations)
[6] = GST-tagged Cn, mean over the spots on the chip (two locations)
[7] = GST-tagged Cn, max over the spots named in Location on chip
[8] = GST-tagged Cn, mean over the spots named in Location on chip
[9] = max over the chip locations listed for the peptide (two spots)
[10] = mean over the chip locations listed for the peptide (two spots)
[11] = max over the spots listed under Location on chip
[12] = mean over the spots listed under Location on chip

Chip Fluorescence (max) [1]: 0.3829
Chip Fluorescence (mean) [2]: -0.6837
Sequence: RNPGQALLTLRGHKAS [SeqRBMlowT_7787]

Chip Fluorescence (max) [9]: 5.135
Chip Fluorescence (mean) [10]: 0.4912
Sequence: RNPGQPLLELEGHSAP [SeqRBMlowT_7742]

Chip Fluorescence (max) [3]: -0.1475
Chip Fluorescence (mean) [4]: -0.4043
Sequence: RNPGSPVLELEGHSAS [SeqRBMlowT_6392]

Chip Fluorescence (max) [5]: 1.174
Chip Fluorescence (mean) [6]: 0.5723
Sequence: RNPGTALLELRGHKAS [SeqRBMlowT_6384]

Chip Fluorescence (max) [11]: 2.68
Chip Fluorescence (mean) [12]: 1.087
Sequence: RNPGTALLELRGHSAS [SeqRBMlowT_6200]

Chip Fluorescence (max) [11]: 3.224
Chip Fluorescence (mean) [12]: 1.049
Sequence: RNPGTFPLELEGHKKQ [SeqRBMlowT_8768]

Chip Fluorescence (max) [5]: 1.229
Chip Fluorescence (mean) [6]: -0.4106
Sequence: RNPGTFPLTLEGHKKQ [SeqRBMlowT_6333]

Chip Fluorescence (max) [3]: -0.2859
Chip Fluorescence (mean) [4]: -0.9089
Sequence: RNPGTPLLELKGHAAS [SeqRBMlowT_8729]

Chip Fluorescence (max) [9]: 4.952
Chip Fluorescence (mean) [10]: 0.4575
Sequence: RQPGQALLELKGHAGA [SeqYPL247C_Erysiphe_pulchra]

Chip Fluorescence (max) [11]: 2.813
Chip Fluorescence (mean) [12]: 0.6175
Sequence: RQPGQALLTLRGHSKS [SeqRBMlowT_7741]

Chip Fluorescence (max) [5]: 1.326
Chip Fluorescence (mean) [6]: -0.7748
Sequence: RSPGTFPLELSGHKKQ [SeqRBMlowT_6356]

Chip Fluorescence (max) [7]: 1.532
Chip Fluorescence (mean) [8]: -0.902
Sequence: RSYVNPAYSFTFDSKA [SeqSFB3_Lachancea_meyersii]

Chip Fluorescence (max) [11]: 2.997
Chip Fluorescence (mean) [12]: 0.7866
Sequence: RTPGTFLLTLRGHKKQ [SeqRBMlowT_7783]

Chip Fluorescence (max) [7]: 1.729
Chip Fluorescence (mean) [8]: 0.4598
Sequence: RTPGTFPLTLKGHKKQ [SeqRBMlowT_6382]

Chip Fluorescence (max) [9]: 4.819
Chip Fluorescence (mean) [10]: 0.7359
Sequence: RTRRISPLFDNPNSKQ [Seqshuffled_9774]

Chip Fluorescence (max) [1]: 0.7621
Chip Fluorescence (mean) [2]: -0.8277
Sequence: SAASFRIKQIEFMVSA [Seqshuffled_4815]

Chip Fluorescence (max) [5]: 1.153
Chip Fluorescence (mean) [6]: -0.5729
Sequence: SDEAGVRIVITVTEAP [SeqRBMlowT_9535]

Chip Fluorescence (max) [9]: 4.191
Chip Fluorescence (mean) [10]: 0.5898
Sequence: SFVHLPDFKVESLVRR [Seqshuffled_9544]

Chip Fluorescence (max) [9]: 5.89
Chip Fluorescence (mean) [10]: 1.37
Sequence: SFWTNPQFKITLEEPD [SeqRBMlowT_6820]

Chip Fluorescence (max) [5]: 1.129
Chip Fluorescence (mean) [6]: 0.3513
Sequence: SFWTNPQFRVKLEEVD [SeqRBMlowT_8566]

Chip Fluorescence (max) [7]: 1.655
Chip Fluorescence (mean) [8]: 0.8527
Sequence: SKMAIAIYQMASCLLH [Seqshuffled_9384]

Chip Fluorescence (max) [7]: 1.684
Chip Fluorescence (mean) [8]: 0.5765
Sequence: SLDEEPGISINEKPVG [Seqshuffled_9948]

Chip Fluorescence (max) [9]: 5.333
Chip Fluorescence (mean) [10]: 1.133
Sequence: SNLACNDRHPNNEDAK [Seqshuffled_9450]

Chip Fluorescence (max) [9]: 7.538
Chip Fluorescence (mean) [10]: 1.227
Sequence: SNSTNPEITITPAELC [SeqRIPOR2_Tarsius_syrichta]

Chip Fluorescence (max) [5]: 1.111
Chip Fluorescence (mean) [6]: 0.4902
Sequence: SQFDQVHYGLHIATFH [Seqshuffled_4372]

Chip Fluorescence (max) [1]: 0.9511
Chip Fluorescence (mean) [2]: 0.1118
Sequence: SRPLDEEGAMAPTLAN [SeqRIPOR2_Propithecus_coquereli]

Further lines, the sequence ahead of its results:

Sequence: RNPGQALLTLEGHSAS [SeqRBMlowT_5868]
Chip Fluorescence (max) [1]: 0.6524
Chip Fluorescence (mean) [2]: -0.2838

Sequence: RNPGQALLTLRGHKAQ [SeqRBMlowT_5824]
Chip Fluorescence (max) [3]: -0.7814
Chip Fluorescence (mean) [4]: -1.225

Sequence: RNPGQALLTLRGHKKQ [SeqRBMlowT_5826]
Chip Fluorescence (max) [5]: 1.2153
Chip Fluorescence (mean) [6]: 0.1411

Sequence: RNPGQALLTLRGHSAS [SeqRBMlowT_5835]
Chip Fluorescence (max) [1]: 0.6321
Chip Fluorescence (mean) [2]: -0.2233

Sequence: RNPGQALLTLRGHSKQ [SeqRBMlowT_6189]
Chip Fluorescence (max) [7]: 1.609
Chip Fluorescence (mean) [8]: 0.3772

Sequence: RNPGSPTLELNGHSGG [SeqRBM_9695]
Chip Fluorescence (max) [5]: 1.159
Chip Fluorescence (mean) [6]: -0.3352

Sequence: RNPGTALLTLRGHKKQ [SeqRBMlowT_5859]
Chip Fluorescence (max) [3]: 0.05866
Chip Fluorescence (mean) [4]: -0.8616

Sequence: RNPGTAPLTLKGHKKQ [SeqRBMlowT_6124]
Chip Fluorescence (max) [11]: 2.7668
Chip Fluorescence (mean) [12]: 0.4787

Sequence: RNYINPQAQFTYDSGA [SeqRBM_6031]
Chip Fluorescence (max) [3]: -0.2579
Chip Fluorescence (mean) [4]: -0.9244

Sequence: RQGAGPILVLEGHWDA [SeqRBM_4400]
Chip Fluorescence (max) [11]: 3.288
Chip Fluorescence (mean) [12]: -1.788

Sequence: RQPGQALLTLRGHKKQ [SeqRBMlowT_5816]
Chip Fluorescence (max) [7]: 1.5016
Chip Fluorescence (mean) [8]: 0.5912

Sequence: RQPGQALLTLRGHSAP [SeqRBMlowT_5806]
Chip Fluorescence (max) [7]: 1.328
Chip Fluorescence (mean) [8]: -0.3044

Sequence: RQPGQALLTLRGHSAS [SeqRBMlowT_5869]
Chip Fluorescence (max) [1]: 0.727
Chip Fluorescence (mean) [2]: -0.3106

Sequence: RQPGTALLELGGHKKQ [SeqRBMlowT_7758]
Chip Fluorescence (max) [5]: 1.043
Chip Fluorescence (mean) [6]: 0.136

Sequence: RQPGTALLTLRGHKKQ [SeqRBMlowT_5805]
Chip Fluorescence (max) [7]: 1.524
Chip Fluorescence (mean) [8]: 0.2674

Sequence: RQPGTAPANLVGHKKQ [SeqRBM_2906]
Chip Fluorescence (max) [1]: 0.7504
Chip Fluorescence (mean) [2]: -0.5221

Sequence: RQPGTFLLTLRGHKKQ [SeqRBMlowT_6149]
Chip Fluorescence (max) [1]: 0.9861
Chip Fluorescence (mean) [2]: 0.123

Sequence: RQPGTLGLTLEGHSNS [SeqRBM_7786]
Chip Fluorescence (max) [1]: 0.7712
Chip Fluorescence (mean) [2]: -0.3628

Sequence: RSYDVPVFLFTYLPNP [SeqRBM_7048]
Chip Fluorescence (max) [9]: 4.515
Chip Fluorescence (mean) [10]: 0.06008

Sequence: RSYINPFVTFLDHGHR [SeqSFB3_Blumeria_graminis]
Chip Fluorescence (max) [1]: 0.7568
Chip Fluorescence (mean) [2]: -0.5098

Sequence: RTLINPSVAFLYMGSR [SeqRBM_5357]
Chip Fluorescence (max) [5]: 1.016
Chip Fluorescence (mean) [6]: -0.7287

Sequence: RTNLNPFFFFTSDSKN [SeqRBM_2819]
Chip Fluorescence (max) [3]: -0.6014
Chip Fluorescence (mean) [4]: -1.251

Sequence: RTPGTALLTLRGHKKQ [SeqRBMlowT_5808]
Chip Fluorescence (max) [3]: 0.1527
Chip Fluorescence (mean) [4]: -0.8232

Sequence: RTYINPFMKFTIWGTQ [SeqRBM_6386]
Chip Fluorescence (max) [7]: 1.359
Chip Fluorescence (mean) [8]: -0.5299

Sequence: RTYINPFMQFTDGGRF [SeqRBMlowT_552]
Chip Fluorescence (max) [11]: 2.5867
Chip Fluorescence (mean) [12]: 0.5553

Sequence: RTYINPFVTFVDGGNK [SeqRBMlowT_3664]
Chip Fluorescence (max) [3]: 0.3337
Chip Fluorescence (mean) [4]: -0.6971

Sequence: RTYMNPFASFLDHSHR [SeqSFB3_Pseudocercospora_musae]
Chip Fluorescence (max) [5]: 1.14
Chip Fluorescence (mean) [6]: -0.1201

Sequence: RVLECPSIRITSISPT [SeqNFATC4_Homo_sapiens]
Chip Fluorescence (max) [3]: 0.1768
Chip Fluorescence (mean) [4]: -0.8782

Sequence: SAGAGVGIVITVTEAE [SeqRBMlowT_164]
Chip Fluorescence (max) [7]: 1.523
Chip Fluorescence (mean) [8]: -0.8688

Sequence: SAGAGVQIVITVTEAE [SeqRBMlowT_1437]
Chip Fluorescence (max) [5]: 1.271
Chip Fluorescence (mean) [6]: -0.4781

Sequence: SAGTGVGIVITVTEAE [SeqRBMlowT_1404]
Chip Fluorescence (max) [9]: 4.275
Chip Fluorescence (mean) [10]: 0.4123

Sequence: SDEAGPRIVITATELP [SeqRBMlowT_4492]
Chip Fluorescence (max) [11]: 2.835
Chip Fluorescence (mean) [12]: 0.5943

Sequence: SDSANPEITITPAELP [SeqRBMlowT_1995]
Chip Fluorescence (max) [9]: 3.663
Chip Fluorescence (mean) [10]: 2.123

Sequence: SFWANPQFIVSLEEPD [SeqRBMlowT_610]
Chip Fluorescence (max) [1]: 0.3721
Chip Fluorescence (mean) [2]: -0.5491

Sequence: SHKASPPTLNESPVTH [SeqRBM_2083]
Chip Fluorescence (max) [3]: -0.06558
Chip Fluorescence (mean) [4]: -1.173

Sequence: SHMAPPAINIDFAPSN [SeqCRZ1_Metarhizium_rileyi]
Chip Fluorescence (max) [3]: 0.3108
Chip Fluorescence (mean) [4]: -0.9278

Sequence: SKLMCVTLAIGSLSTS [SeqRBM_2514]
Chip Fluorescence (max) [5]: 1.101
Chip Fluorescence (mean) [6]: -0.2904

Sequence: SLKLWMLLGIEAFTLS [SeqRBM_4562]
Chip Fluorescence (max) [5]: 1.02
Chip Fluorescence (mean) [6]: 0.3817

Sequence: SPSIVANADLVVPYSE [SeqRBM_1237]
Chip Fluorescence (max) [1]: 0.5354
Chip Fluorescence (mean) [2]: -0.2316

Sequence: SPSNPPEIIISSREDN [SeqKCNN2_Mus_musculus]
Chip Fluorescence (max) [11]: 3.195
Chip Fluorescence (mean) [12]: 0.7018

Sequence: SQAKSPRIEITAYTHV [SeqRBM_8514]
Chip Fluorescence (max) [1]: 0.9232
Chip Fluorescence (mean) [2]: -0.444

Sequence: SQLAAPAINIDFAPTN [SeqRBMlowT_5061]
Chip Fluorescence (max) [3]: 0.08477
Chip Fluorescence (mean) [4]: -0.8412

Sequence: SQMAAPAINIDFAPTN [SeqRBMlowT_314]
Chip Fluorescence (max) [5]: 0.998
Chip Fluorescence (mean) [6]: -0.1818

Sequence: SQMGKSRPWVSPERDN [SeqRBM_2721]
Chip Fluorescence (max) [1]: 0.7358
Chip Fluorescence (mean) [2]: -0.1667

Sequence: SSAAPPAINIDFAPTN [SeqRBMlowT_5045]
Chip Fluorescence (max) [3]: -0.1972
Chip Fluorescence (mean) [4]: -1.194

Sequence: SSEYQESLCIENFSAN [SeqRBM_3304]
Chip Fluorescence (max) [7]: 1.766
Chip Fluorescence (mean) [8]: 0.6423

Sequence: SSKSLPTFSFSSPVSH [SeqRBMlowT_6060]
Chip Fluorescence (max) [7]: 1.331
Chip Fluorescence (mean) [8]: 0.1061

Sequence: SSLECPHVQVTVSGQR [SeqRBM_6881]
Chip Fluorescence (max) [7]: 1.51
Chip Fluorescence (mean) [8]: 0.9297

Sequence: SSMAPPAINIDFAPTN [SeqRBMlowT_1806]
Chip Fluorescence (max) [7]: 1.404
Chip Fluorescence (mean) [8]: 0.3806

Sequence: SSQGSSRPARSPERTV [SeqRBM_2387]
Chip Fluorescence (max) [1]: 0.4699
Chip Fluorescence (mean) [2]: -0.1808

Sequence: SSRIQSKIVVNEPKQI [SeqRBM_7418]
Chip Fluorescence (max) [3]: -0.3136
Chip Fluorescence (mean) [4]: -1.152
